Data on 8 compounds can be found in ChEMBL document CHEMBL4725454, “Degradation of LRRK2 in the Treatment of Parkinson's Disease” (ACS Med Chem Lett, 2020).

As a reminder, the IC50 is the midpoint of a concentration-inhibition curve.

Test [1] addresses Protein cereblon/Leucine-rich repeat serine/threonine-protein kinase 2 (Mus musculus, UniProt Q5S006+Q8C7D2, G2019S). Put plainly: Protac activity at CRBN/LRRK2 G2019S homozygous knock-in mutant in mouse MEF cells assessed as induction of LRRK2 degradation by measuring reduction in LRRK2 phosphorylation at S935 residue by Invitrogen Adapta assay. It counts as cell-based.
The target of test [2] is Protein cereblon/Leucine-rich repeat serine/threonine-protein kinase 2 (Mus musculus, UniProt Q5S006+Q8C7D2). Kind of test: Protac activity at CRBN/LRRK2 in mouse MEF cells assessed as induction of LRRK2 degradation by measuring reduction in LRRK2 phosphorylation at S935 residue by Invitrogen Adapta assay. The test is classed as cell-based.

As for `CC1(Oc2ccc3[nH]nc(-c4cc(N5CCN(C(=O)CCOCCOCCOCCOCCNc6cccc7c6C(=O)N(C6CCC(=O)NC6=O)C7=O)CC5)ncn4)c3c2)CC1` (stereo unspecified), the IC50 in test [1] is 0.98 nM; in test [2], 1.46 nM.
Consider `CC1(Oc2ccc3[nH]nc(-c4cc(N5CCN(C(=O)CCOCCNc6cccc7c6C(=O)N(C6CCC(=O)NC6=O)C7)CC5)ncn4)c3c2)CC1` (stereo unspecified), for which the IC50 stood at 1.47 nM in test [1] and 2.5 nM in test [2].
Regarding `CC1(Oc2ccc3[nH]nc(-c4cc(N5CCN(C(=O)CCOCCNc6cccc7c6C(=O)N(C6CCC(=O)NC6=O)C7=O)CC5)ncn4)c3c2)CC1` (stereo unspecified), the results for the IC50 in test [1] and in test [2] were 1.08 nM and 1.59 nM, respectively.
On to `CNc1nc(Nc2ccc(C(=O)N3CCN(C(=O)CCOCCOCCOCCOCCNc4cccc5c4C(=O)N(C4CCC(=O)NC4=O)C5=O)CC3)cc2OC)ncc1C(F)(F)F` (stereo unspecified), for which the values for the IC50 in test [1] and in test [2] were 2 nM and 4 nM, respectively.
As to `CC1(Oc2ccc3[nH]nc(-c4cc(N5CCN(C(=O)CCOCCOCCOCCOCCNc6cccc7c6C(=O)N(C6CCC(=O)NC6=O)C7)CC5)ncn4)c3c2)CC1` (stereo unspecified), the IC50 amounted to 3.16 nM in test [1] and 3.14 nM in test [2].
Turning to `CC1(Oc2ccc3[nH]nc(-c4cc(N5CCN(C(=O)CCOCCOCCNc6cccc7c6C(=O)N(C6CCC(=O)NC6=O)C7=O)CC5)ncn4)c3c2)CC1` (stereo unspecified), the IC50 came to 1.13 nM in test [1] and 1.24 nM in test [2].
Take `CC1(Oc2ccc3[nH]nc(-c4cc(N5CCN(C(=O)CCOCCOCCNc6cccc7c6C(=O)N(C6CCC(=O)NC6=O)C7)CC5)ncn4)c3c2)CC1` (stereo unspecified): the IC50 in test [1] was found to be 2.24 nM; in test [2] it was 2.58 nM.
Regarding `CNc1nc(Nc2ccc(C(=O)N3CCN(C(=O)CCCCCCCCOc4cccc5c4C(=O)N(C4CCC(=O)NC4=O)C5=O)CC3)cc2OC)ncc1C(F)(F)F` (stereo unspecified), the IC50 is 1 nM in test [1] and 2 nM in test [2].
